Our source for the IC50 values is patent US20240059691A1 (KALVISTA PHARMACEUTICALS LIMITED, priority 2020, published 2024).

Plasma Kallikrein, sequence (P03952 391-638): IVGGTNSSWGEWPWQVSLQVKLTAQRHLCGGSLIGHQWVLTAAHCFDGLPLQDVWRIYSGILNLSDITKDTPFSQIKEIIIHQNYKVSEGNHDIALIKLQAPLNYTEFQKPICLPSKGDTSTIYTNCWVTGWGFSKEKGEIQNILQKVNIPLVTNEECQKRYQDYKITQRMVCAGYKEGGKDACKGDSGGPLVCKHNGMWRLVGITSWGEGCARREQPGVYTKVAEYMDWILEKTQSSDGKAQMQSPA
Plasma Kallikrein, sequence (P03952 20-390 partner): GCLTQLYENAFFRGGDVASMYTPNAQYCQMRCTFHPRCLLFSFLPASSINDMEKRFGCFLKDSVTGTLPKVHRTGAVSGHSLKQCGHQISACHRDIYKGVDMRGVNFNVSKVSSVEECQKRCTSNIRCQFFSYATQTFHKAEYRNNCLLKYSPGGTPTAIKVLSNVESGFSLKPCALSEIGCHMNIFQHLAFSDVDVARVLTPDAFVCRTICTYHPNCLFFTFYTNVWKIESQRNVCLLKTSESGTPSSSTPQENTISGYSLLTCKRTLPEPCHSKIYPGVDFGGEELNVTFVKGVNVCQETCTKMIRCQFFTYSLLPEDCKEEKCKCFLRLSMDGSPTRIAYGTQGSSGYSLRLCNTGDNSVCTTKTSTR

In this assay the target is Plasma Kallikrein (Homo sapiens (Human), UniProt P03952). Kind of assay: Determination of related protease inhibition: Plasma Kallikrein (fluorogenic substrate at Km). The format is biochemical. Conditions: 25° C., read-out: IC50 (human PKal). The method, then:
Determination of Related Protease Inhibition
In vitro inhibition of related proteases was determined using an ([…] assay based on standard literature methods (see e.g. Shori et al., Biochem. Pharmacol., 1992, 43, 1209; Bouckaert et al., European Journal of Medicinal Chemistry 110 (2016) 181). Human serine protease enzymes Plasma Kallikrein, KLK1, FXa, Plasmin, Thrombin and Trypsin were assayed for enzymatic activity using an appropriate fluorogenic substrate at Km concentration, FXIa at fixed substrate concentration of 100 μM, and various concentrations of the test compound. Protease activity was measured by monitoring the accumulation of liberated fluorescence from the substrate over […]. The linear rate of fluorescence increase per minute was expressed as percentage (%) activity. IC50 values were calculated as the concentration of inhibitor giving 50% inhibition of the uninhibited enzyme activity (100%).
Broadly, the IC50 is the midpoint of a concentration-inhibition curve. Turning to `Cc1cc2c(NCc3ccc(NCC4CCN(C)CC4)nc3)ccnc2n1C` [Example 1216, 1,2-dimethyl-N-((6-(((1-methylpiperidin-4-yl)methyl)amino)pyridin-3-yl)methyl)-1H-pyrrolo[2,3-b]pyridin-4-amine], the IC50 is above 100 µM. With `CN1CCC(CNc2ccc(CNc3ccnc4[nH]ncc34)cn2)CC1` [Example 1218, N-((6-(((1-methylpiperidin-4-yl)methyl)amino)pyridin-3-yl)methyl)-1H-pyrazolo[3,4-b]pyridin-4-amine], the IC50 was above 100 µM. With `CNC(=O)c1cc(NCc2ccc(NCC3CCN(C)CC3)nc2)cc2c(Cl)c[nH]c12` [Example 1220, 3-chloro-N-methyl-5-(((6-(((1-methylpiperidin-4-yl)methyl)amino)pyridin-3-yl)methyl)amino)-1H-indole-7-carboxamide], the IC50 was above 40 µM. Take `CN1CCC(CNc2ccc(CNc3ccnc4[nH]cc(C#N)c34)cn2)CC1` [Example 1221, 4-(((6-(((1-methylpiperidin-4-yl)methyl)amino)pyridin-3-yl)methyl)amino)-1H-pyrrolo[2,3-b]pyridine-3-carbonitrile]: the IC50 is above 100 µM. The result for `CN1CCC(CNc2ccc(CNc3ccn4ccnc4c3)cn2)CC1` [Example 1222, N-((6-(((1-methylpiperidin-4-yl)methyl)amino)pyridin-3-yl)methyl)imidazo[1,2-a]pyridin-7-amine] reads above 40 µM; that for `CN1CCC(CNc2ccc(CNc3ccnc4c3ccn4C)cn2)CC1` [Example 1225, 1-methyl-N-((6-(((1-methylpiperidin-4-yl)methyl)amino)pyridin-3-yl)methyl)-1H-pyrrolo[2,3-b]pyridin-4-amine], above 100 µM.

Take `CN1CCC(CNc2ccc(CNc3ncnc4[nH]ccc34)cn2)CC1` [Example 1227, N-((6-(((1-methylpiperidin-4-yl)methyl)amino)pyridin-3-yl)methyl)-7H-pyrrolo[2,3-d]pyrimidin-4-amine]: the IC50 is above 100 µM. The result for `Cc1ncc(NCc2ccc(NCC3CCN(C)CC3)nc2)c2cc[nH]c12` [Example 1244, 7-methyl-N-((6-(((1-methylpiperidin-4-yl)methyl)amino)pyridin-3-yl)methyl)-1H-pyrrolo[2,3-c]pyridin-4-amine] reads above 100 µM; that for `COC(=O)c1cc2c(NCc3ccc(NCC4CCN(C)CC4)nc3)ccnc2[nH]1` [Example 1247, methyl 4-(((6-(((1-methylpiperidin-4-yl)methyl)amino)pyridin-3-yl)methyl)amino)-1H-pyrrolo[2,3-b]pyridine-2-carboxylate], above 100 µM. The figure for `CN1CCC(CNc2ccc(CNc3ccnc4[nH]c(C(=O)O)cc34)cn2)CC1` [Example 1253, 4-(((6-(((1-methylpiperidin-4-yl)methyl)amino)pyridin-3-yl)methyl)amino)-1H-pyrrolo [2,3-b]pyridine-2-carboxylic acid] is above 40 µM; for `CN1CCC(CNc2ccc(CNc3ccnc4c3CC(C)(C)N4)cn2)CC1` [Example 1257, 2,2-dimethyl-N-((6-(((1-methylpiperidin-4-yl)methyl)amino)pyridin-3-yl)methyl)-2,3-dihydro-1H-pyrrolo[2,3-b]pyridin-4-amine] it is above 40 µM. The figure for `CN1CCC(CNc2ccc(CNc3ccc4cncc(N5CCC(F)(F)C5)c4c3)cn2)CC1` [Example 1260, 4-(3,3-difluoropyrrolidin-1-yl)-N-((6-(((1-methylpiperidin-4-yl)methyl)amino)pyridin-3-yl)methyl)isoquinolin-6-amine] is above 40 µM; for `CN1CCC(CNc2ccc(CNc3cc(C#N)nc4[nH]ccc34)cn2)CC1` [Example 1261, 4-(((6-(((1-methylpiperidin-4-yl)methyl)amino)pyridin-3-yl)methyl)amino)-1H-pyrrolo[2,3-b]pyridine-6-carbonitrile] it is above 40 µM.
